Data on 8 compounds can be found in PubChem BioAssay (NCI).

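96-well plates; 48 h exposure; 5 concentrations. Endpoints by linear interpolation between flanking doses. Not reached: highest tested concentration assigned. The concentration for 50% growth inhibition is given as GI50. The concentration for full growth arrest is given as TGI.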 Some results are limits rather than exact numbers.

Some test systems named below: A549 NSCLC; BT-549 breast; DU-145 prostate; EKVX NSCLC; K-562 leukemia; SN12C renal; U251 CNS; UACC-257 melanoma; UACC-62 melanoma; UO-31 renal.
What all share (test): NCI anticancer screen, dose series, 48 h

For `NC1=NC(c2ccc(Cl)cc2)C2=C(N1)/C(=C/c1ccc(Cl)cc1)CCC2` (stereo not drawn), the GI50 was 7.79 µM in the assay on A549 NSCLC; 2.74 µM in the assay on BT-549 breast; 7.91 µM with DU-145 prostate; 13.3 µM in the assay on EKVX NSCLC; 6.92 µM with K-562 leukemia; 17.3 µM in the assay on SN12C renal. Further, the GI50 with U251 CNS is 3.38 µM; in the assay with UACC-257 melanoma, 7.14 µM; in the assay on UACC-62 melanoma, 13.3 µM; in the assay on UO-31 renal, 9.76 µM. The TGI with A549 NSCLC is 35 µM; in the assay with BT-549 breast, 10.7 µM; with DU-145 prostate, 29.6 µM; in the assay with EKVX NSCLC it was 78.4 µM; in the assay with K-562 leukemia it was > 87.8 µM; in the assay with SN12C renal, 50.4 µM. For the same compound, the TGI in the assay on U251 CNS was found to be 12.2 µM; in the assay on UACC-257 melanoma it was 28.1 µM; in the assay on UACC-62 melanoma, 34.8 µM; in the assay with UO-31 renal it was 27.9 µM.
`COC(=O)[C@]12CC[C@@H](C)[C@H](C)[C@@H]1C1=CC[C@@H]3[C@@]4(C)C=C(O)C(=O)[C@@]5(C)COC(=C54)C[C@@]3(C)[C@]1(C)CC2`: the GI50 was 8.36 µM in the assay on A549 NSCLC; 7.96 µM in the assay on BT-549 breast; 11.7 µM with DU-145 prostate; 8.37 µM with EKVX NSCLC; 3.12 µM in the assay with K-562 leukemia; 12.6 µM with U251 CNS. Also, the GI50 with UACC-257 melanoma was 4.32 µM; in the assay on UO-31 renal, 10.1 µM. In addition, the TGI worked out at 26 µM in the assay with A549 NSCLC; 25.8 µM in the assay with BT-549 breast; 28.2 µM in the assay with DU-145 prostate; 26.5 µM in the assay with EKVX NSCLC; 13.8 µM in the assay on K-562 leukemia; 30.7 µM with U251 CNS. In addition, the TGI is 18.8 µM in the assay on UACC-257 melanoma and 24.4 µM in the assay with UO-31 renal.
For `CCN1c2ccccc2C(Cl)(c2ccc(N(C)C)cc2)c2ccccc21`, the GI50 in the assay on A549 NSCLC was 4.34 µM; in the assay with BT-549 breast it was 12 µM; in the assay on DU-145 prostate, 5.5 µM; in the assay with EKVX NSCLC, 7.98 µM; with K-562 leukemia, 3.1 µM; with SN12C renal it was 4.88 µM. The GI50 in the assay on U251 CNS was 3.69 µM; with UACC-62 melanoma, 11.6 µM; in the assay with UO-31 renal it was 1.91 µM. Also, the TGI with A549 NSCLC was 24.5 µM; in the assay with BT-549 breast it was 29 µM; with DU-145 prostate, 17.1 µM; in the assay with EKVX NSCLC, > 100 µM; in the assay with K-562 leukemia it was 25.7 µM; in the assay on SN12C renal, 19.2 µM. The TGI in the assay on U251 CNS was found to be 17.4 µM; in the assay on UACC-62 melanoma, 42.1 µM; in the assay on UO-31 renal, 5.27 µM.
For the compound `C=C(c1ccc(C(=O)N(C)c2ccccc2N)cc1)C(C)N1C(=O)[C@H]2CCCN2C(=O)c2ccccc21` (stereo partly drawn), the GI50 with A549 NSCLC was 68.8 µM; with BT-549 breast, > 100 µM; in the assay on DU-145 prostate it was 33.3 µM; in the assay on EKVX NSCLC, 80.6 µM; in the assay with K-562 leukemia, 19.3 µM; in the assay on SN12C renal it was 26.4 µM. Moreover, the GI50 in the assay with UACC-257 melanoma is 34.7 µM; in the assay with UACC-62 melanoma, 24 µM; in the assay with UO-31 renal it was 53.4 µM. In addition, the TGI in the assay with A549 NSCLC, in the assay with BT-549 breast, in the assay with DU-145 prostate, in the assay with EKVX NSCLC, in the assay with K-562 leukemia and with SN12C renal was > 100 µM in each case. Moreover, the TGI in the assay on UACC-257 melanoma, with UACC-62 melanoma and in the assay with UO-31 renal was > 100 µM each time.
As to `O=C(Cc1cccc(OC(F)(F)F)c1)Nc1ccc(CCCCc2nnc(NC(=O)Cc3ccccn3)s2)nn1`, the GI50 in the assay on BT-549 breast is 27.9 µM; in the assay with DU-145 prostate, 25.8 µM; with EKVX NSCLC, 13.3 µM; in the assay with K-562 leukemia, 16.9 µM; in the assay with SN12C renal, 18.5 µM; with UACC-257 melanoma, 29.3 µM. For the same compound, the GI50 in the assay with UACC-62 melanoma was 19.9 µM; in the assay with UO-31 renal, 2.85 µM. Moreover, the TGI with BT-549 breast is > 100 µM; with DU-145 prostate, > 100 µM; in the assay on EKVX NSCLC, 68.7 µM; with K-562 leukemia, > 100 µM; with SN12C renal, > 100 µM; in the assay on UACC-257 melanoma, > 100 µM. For the same compound, the TGI with UACC-62 melanoma is > 100 µM; with UO-31 renal it was 28.9 µM.
For the compound `COc1ccc2nc3cc(Cl)ccc3c(NCCCNCCC(C)O)c2c1` (stereo not drawn), the GI50 is 0.422 µM with A549 NSCLC; 1.73 µM in the assay on BT-549 breast; 0.302 µM in the assay on DU-145 prostate; 0.473 µM in the assay with EKVX NSCLC; 0.495 µM in the assay with U251 CNS; 1.63 µM in the assay with UACC-257 melanoma. In addition, the GI50 with UO-31 renal was 1.11 µM. Also, the TGI is 2.12 µM in the assay on A549 NSCLC; 4.13 µM in the assay with BT-549 breast; 1.24 µM in the assay with DU-145 prostate; 2.41 µM with EKVX NSCLC; 2.34 µM in the assay on U251 CNS; 3.43 µM in the assay on UACC-257 melanoma. In addition, in the assay with UO-31 renal, the TGI stood at 3.27 µM.
In the case of `O=Nc1ccc2ccccc2c1O`, the GI50 with A549 NSCLC was 6.2 µM; in the assay on BT-549 breast, 17.7 µM; with DU-145 prostate it was 10.4 µM; in the assay with EKVX NSCLC, 8.61 µM; with SN12C renal, 1.9 µM; in the assay on U251 CNS, 3.11 µM. In addition, the GI50 in the assay on UACC-257 melanoma was 2.13 µM; with UACC-62 melanoma it was 2.23 µM; with UO-31 renal it was 4.99 µM. The TGI with A549 NSCLC worked out at 19.6 µM; in the assay with BT-549 breast it was 31.6 µM; in the assay on DU-145 prostate it was 22.7 µM; with EKVX NSCLC, 22.6 µM; with SN12C renal, 5.26 µM; in the assay on U251 CNS, 9.46 µM. For the same compound, the TGI was found to be 4.19 µM in the assay with UACC-257 melanoma, 5.89 µM in the assay with UACC-62 melanoma and 21.7 µM in the assay on UO-31 renal.
Consider `Cc1c2c[n+](C(C)C)ccc2c(C)c2c1[nH]c1ccccc12`, for which the GI50 was 2.55 µM in the assay with A549 NSCLC; 1.72 µM with BT-549 breast; 4.74 µM in the assay with DU-145 prostate; 3.51 µM in the assay on EKVX NSCLC; 2.72 µM with K-562 leukemia; 0.32 µM with SN12C renal. Further, the GI50 with U251 CNS was 0.456 µM; in the assay with UACC-62 melanoma it was 2.7 µM; in the assay on UO-31 renal, 20.6 µM. The TGI in the assay on A549 NSCLC was > 100 µM; in the assay on BT-549 breast, 11.2 µM; in the assay on DU-145 prostate it was 54.1 µM; in the assay with EKVX NSCLC it was 53.9 µM; in the assay with K-562 leukemia it was 29 µM; in the assay on SN12C renal it was 11.8 µM. For the same compound, the TGI in the assay with U251 CNS was 15.2 µM; in the assay with UACC-62 melanoma, 15 µM; in the assay on UO-31 renal it was > 100 µM.
